According to US20260015339A1, “CALIX[4]ARENES WITH HIGH ANTICANCER ACTIVITY” (UNIVERSITE GRENOBLE ALPES, priority 2023, published 2026):

Assays:
[1] = Cu^+ binding by 1H NMR titration; conditions: 1H NMR titration with Cu(MeCN)4BF4, CD3CN/CDCl3 4/1, 298 K
Description: Binding abilities and complexation constants of the examples of calix[4]arenes of the present invention and the comparative examples with Cu^+ were evaluated by ^1H NMR titrations at 298 K using copper(I)tetrakis(acetronitrile)tetrafluoroborate.
For example, for each separate calix[4]arene a stock solution of the tested calix[4]arene was prepared in a CD3CN/CDCl3, 4/1 mixture. Using this stock solution, a Cu(MeCN)4BF4 solution was prepared and added by steps of 0.25 equivalent of copper(I) up until 1 equivalent and then by steps of 0.5 equivalent until a total of at least 2 equivalents. ^1H NMR spectra were recorded at a 400 MHz spectrometer at 298 K for the stock solutions of the calix[4]arenes and after each addition of Cu(MeCN)4BF4.
Calix[4]arenes for which a gradual change of the chemical shifts of the ^1H NMR signals (>0.1 ppm for at least one of the signals) was observed upon addition of up to 4-5 equivalents of Cu(MeCN)4BF4 were considered to show weak binding.

[2] = Cu^+ transport into liposomes with encapsulated BCS; conditions: POPC/cholesterol 7:3 LUVs, calix[4]arene to lipid 1:1000, 50 μM copper gradient, F/F0 after 600 s
Description: The ability of the examples of calix[4]arenes of the invention and the comparative examples to be delivered into a lipidic bilayer membrane of a liposome from a solution and their capacity to then act as a transporter of Cu^+ was evaluated using bathocuproine disulphonate (hereafter abbreviated “BCS”) encapsulated in large unilamellar vesicles (LUVs, also referred to as liposomes) composed of 1-palmitoyl-2-oleoyl-sn-glycero-3-phosphocholine and cholesterol in a 7:3 ratio.
BCS is a fluorescent water soluble phenantroline derivative that can be used as fluorescent dye for the sensing of Cu^+ through the formation of a non-fluorescent 2:1 complex.
Stock solution of lipids were prepared using deacidified CHCl3 and stored in a freezer. CHCl3 was deacidified by passing through activated basic alumina. The lipids used to prepare the liposomes were 2-oleoyl-1-palmitoyl-sn-glycero-3-phosphocholine (POPC), (purity ≥99%) and cholesterol (purity of 95%). 50 mM sodium phosphate buffer were prepared with Millipore water at pH 7 (±0.1) by mixing the solution of the mono- and the di-protonated phosphate salts. The solution of the dye (BCS) was prepared at 0.5 mM concentration in phosphate buffer.
The lipids solutions were mixed in different ratios in a 5 mL round bottom flask. The POPC/cholesterol molar ratio was 7:3 in all experiments. The total amount of lipids per batch varied depending on the amount of liposomes solution required for the experiment. After mixing the lipid solutions in a round bottom flask, the chloroform was evaporated under a gentle air flow and the resulting lipid film was dried at high vacuum for at least an hour. 500 μL of the BCS solution in phosphate buffer and a magnetic stir bar were added to the flask. The flask was then sonicated for 30 seconds and placed under magnetic agitation for at least an hour. The solution was frozen with liquid nitrogen and heated back to room temperature with warm water ten times to form large unilamellar vesicles (LUVs). The liposome solution was extruded 29 times, using an extrusion kit equipped with a membrane with 200 nm pores. Subsequently, the solution was eluted with the buffer solution used for the experiment through a size exclusion column (Sephadex G-25) to remove the external BCS and then diluted with phosphate buffer to obtain a concentration of 0.4 mM in lipids.
Solutions of the calix[4]arenes were prepared at a concentration of 0.24 mM in DMSO and 5 μL of the solution was added 2 minutes before each transport measurement.
Alternatively, calix[4]arenes were pre-incorporated by combining the calix[4]arene (dissolved in chloroform) with the lipids prior to the evaporation of the chloroform to obtain a lipid film. The concentrations and volumes were chosen to obtain a calix[4]arene to lipid of 1:1000.
Fluorescence measurements were performed with a Horiba FluoroMax 4 spectrometer using a 4-faced quartz cuvette (10 mm×10 mm). For the Cu^+ transport assay, the excitation was set at 278 nm and emission was recorded at 393 nm. These values correspond to the excitation and emission maxima of BCS encapsulated inside LUVs.
The Cu^+ solutions added to the liposomes were obtained by dissolving Cu(MeCN)4BF4 in MeCN at 15.25 mM concentration. The copper solution was then diluted by a factor 5 in a phosphate buffer during the first 30 seconds of the experiment to reach a copper concentration of 3.05 mM. 50 μL of the diluted copper solution was added to 3 mL of liposomes, resulting in a copper gradient of 50 μM. The fluorescence level was monitored for 600 seconds after the addition of the copper solution.
For each run the initial plateau and the initial vertical drop (due to the binding of the exterior dye with Cu^+ and the dilution, 1-4 seconds after the addition) were removed. Then the signal was normalised by dividing the fluorescence values (F) by the value at t=0 second (F0). […]

[3] = tested on: H322 lung carcinoma cells; assay: MTS cytotoxicity assay on H322; format: cell-based; conditions: NCI-H322; H322, 72 hours of treatment
Description: H322 lung carcinoma cells were seeded in 96-well plates together with the calix[4]arene of the formula (2). Cells were grown in RPMI-1640 supplemented with GlutaMAX™ (Gibco™) and fetal calf serum (FCS, 10%) and treated with a broad range of concentrations of the calix[4]arene of the formula (2). After 72 hours of treatment, the cytotoxicity was measured by means of the IC50 value, using the kit “CellTiter 96R AQuous One Solution Cell Proliferation Assay (MTS)” from Promega™. Following 30 minutes of incubation with the MTS reagent, the endpoint measurements were done in triplicate at 485 nm, using a fluorescence plate reader.
H322 lung carcinoma cells were seeded in 96-well plates together with the compound of the 2nd comparative example of the formula (XI). Cells were grown in RPMI-1640 supplemented with GlutaMAX™ (Gibco™) and fetal calf serum (FCS, 10%) and treated with a broad range of concentrations of the 2nd comparative example of the formula (XI). After 72 hours of treatment, the cytotoxicity was measured by means of the IC50 value, using the kit “CellTiter 96R AQuous One Solution Cell Proliferation Assay (MTS)” from Promega™. Following 30 minutes of incubation with the MTS reagent, the endpoint measurements were done in triplicate at 485 nm, using a fluorescence plate reader.
H322 lung carcinoma cells were seeded in 96-well plates together with the 1st comparative example of the formula (X). Cells were grown in RPMI-1640 supplemented with GlutaMAX™ (Gibco™) and fetal calf serum (FCS, 10%) and treated with a broad range of concentrations of the compound of the formula (X). After 72 hours of treatment, the cytotoxicity was measured by means of the IC50 value, using the kit “CellTiter 96R AQuous One Solution Cell Proliferation Assay (MTS)” from Promega™. Following 30 minutes of incubation with the MTS reagent, the endpoint measurements were done in triplicate at 485 nm, using a fluorescence plate reader.
H322 lung carcinoma cells were seeded in 96-well plates together with the tested calix[4]arenes. Cells were grown in RPMI-1640 supplemented with GlutaMAX™ (Gibco™) and fetal calf serum (FCS, 10%) and treated with a broad range of concentrations of the tested calix[4]arenes. After 72 hours of treatment, the cytotoxicity was measured by means of the IC50 value, using the kit “CellTiter 96R AQuous One Solution Cell Proliferation Assay (MTS)” from Promega™. Following 30 minutes of incubation with the MTS reagent, the endpoint measurements were done in triplicate at 485 nm, using a fluorescence plate reader.

[4] = tested on: A549 human lung cancer cells; assay: MTS cytotoxicity assay on A549; format: cell-based; conditions: A549, 72 hours of treatment
Description: A549 human lung cancer cells were seeded in 96-well plates together with the calix[4]arene of the formula (2). Cells were grown in RPMI-1640 supplemented with GlutaMAX™ (Gibco™) and fetal calf serum (FCS, 10%) and treated with a broad range of concentrations of the calix[4]arene of the formula (2). After 72 hours of treatment, the cytotoxicity was measured by means of the IC50 value, using the kit “CellTiter 96R AQuous One Solution Cell Proliferation Assay (MTS)” from Promega™. Following 30 minutes of incubation with the MTS reagent, the endpoint measurements were done in triplicate at 485 nm, using a fluorescence plate reader.
A549 human lung cancer cells were seeded in 96-well plates together with the compound of the 2nd comparative example of the formula (XI). Cells were grown in RPMI-1640 supplemented with GlutaMAX™ (Gibco™) and fetal calf serum (FCS, 10%) and treated with a broad range of concentrations of the 2nd comparative example of the formula (XI). After 72 hours of treatment, the cytotoxicity was measured by means of the IC50 value, using the kit “CellTiter 96R AQuous One Solution Cell Proliferation Assay (MTS)” from Promega™. Following 30 minutes of incubation with the MTS reagent, the endpoint measurements were done in triplicate at 485 nm, using a fluorescence plate reader. […]

[5] = tested on: PC9 human lung cancer cells; assay: MTS cytotoxicity assay on PC9; format: cell-based; conditions: PC9, 72 hours of treatment
Description: PC9 human lung cancer cells were seeded in 96-well plates together with the calix[4]arene of the formula (2). Cells were grown in RPMI-1640 supplemented with GlutaMAX™ (Gibco™) and fetal calf serum (FCS, 10%) and treated with a broad range of concentrations of the calix[4]arene of the formula (2). After 72 hours of treatment, the cytotoxicity was measured by means of the IC50 value, using the kit “CellTiter 96R AQuous One Solution Cell Proliferation Assay (MTS)” from Promega™. Following 30 minutes of incubation with the MTS reagent, the endpoint measurements were done in triplicate at 485 nm, using a fluorescence plate reader.
PC9 human lung cancer cells were seeded in 96-well plates together with the 2nd comparative example of the formula (XI). Cells were grown in RPMI-1640 supplemented with GlutaMAX™ (Gibco™) and fetal calf serum (FCS, 10%) and treated with a broad range of concentrations of the compound of the 2nd comparative example of the formula (XI). After 72 hours of treatment, the cytotoxicity was measured by means of the IC50 value, using the kit “CellTiter 96R AQuous One Solution Cell Proliferation Assay (MTS)” from Promega™. Following 30 minutes of incubation with the MTS reagent, the endpoint measurements were done in triplicate at 485 nm, using a fluorescence plate reader. […]

[6] = tested on: Non-malignant MRC5-SVII cells; assay: MTS cytotoxicity assay on MRC5-SVII; format: cell-based; conditions: 72 hours of treatment
Description: Cells were grown in Minimal Essential Medium—Non Essential Amino Acids (MEM NEAA) culture medium from Gibco™, supplemented with sodium pyruvate ([…]), and fetal calf serum (FCS, 10%) and treated with a broad range of concentrations of the 2nd comparative example of the formula (XI).

[7] = tested on: Hepatocellular carcinoma (HepG2/C3A) cells; assay: MTT cytotoxicity assay (DL50); format: cell-based; conditions: 24 hours of incubation
Description: Cytotoxicity was evaluated using the MTT assay. 1.10^4 cells per well were seeded in a flat-bottom 96-well plate and were incubated for 48 hours at 37° C. with 5% CO2 before addition of the different calix[4]arenes at concentrations up to 200 μM. In all experiments, each condition was performed in triplicate in the plate. Besides, each experiment was done three times independently. After 24 hours of incubation in presence of the compounds, medium was discarded, cells were rinsed with PBS and 100 μL of medium containing 0.5 mg/mL of MTT was added to each well. After 30 minutes of incubation at 37° C., MTT solution was discarded and formazan crystals formed were dissolved in 150 μL of 4 mM HCl, 0.1% NP40 in isopropanol. The absorbance in the wells were read in a microplate reader (Tecan microplate reader-550) at 570 nm.

Q: With `CCCOc1c2cccc1Cc1cccc(c1OCCC)Cc1cccc(c1OCCC)Cc1cccc(c1OCCC)C2` [(XI)] as the compound, how does the “Cu^+ binding” value [1] read?
A: Its value is “Not significant (means that no significant changes of chemical shifts (<0.1 ppm) were observed upon addition of 4-5 equivalents of Cu(MeCN)4BF4)”.

Q: What about the “Cu^+ transport” value [2] of the same compound?
A: The value was “No (means that no significant decrease of the fluorescence of encapsulated BCS was observed upon addition of Cu^+ to the liposomes (F/F0 >0.65 after 600 s) when the calix[4]arene was either delivered from a solution in DMSO to liposomes or pre-incorporated into the liposomes)”.

Q: What about the IC50 [3] of the same compound?
A: The IC50 was greater than 50 µM.

Q: What about the IC50 [4] of the same compound?
A: The IC50 was greater than 50 µM.

Q: What about the IC50 [5] of the same compound?
A: Its IC50 is greater than 50 µM.

Q: And the IC50 [6]?
A: The IC50 was greater than 20 µM.

Q: And the IC50 [7]?
A: The IC50 was 184 µM.
